According to patent US20080280891A1, “Anti-cancer agents and uses thereof” (Locus Pharmaceuticals, Inc., priority 2006, published 2008):

How the values were obtained:
Assay type in all cases: cell-based
[1] = tested on: Hela cells; test: Cell viability assay (WST-1), Hela cells; conditions: Homo sapiens, HeLa, WST-1, 48-72 hrs, 0.5% fetal calf serum
Procedure: (§1) Jurkat and Hela cells were cultured in RPMI and EMEM media, respectively, containing 0.5% fetal calf serum. Cells were plated in a volume of 100 μL in a 96 well format. Test compounds were included in the culture media at concentrations ranging from 1 nM to 10 μM for a period of 48-72 hrs. Cell viability was determined using the WST-1 calorimetric mitochondrial reduction assay. Briefly, 10 μL of WST-1 reagent was included in the culture well for a period of 1 to 4 hrs. The WST-1 reaction was read on a multiwell spectrophotometer as the difference in the absorbance between 450 nm and 600 nm (baseline). Absorbance was proportional to the number of living cells in the culture well. Concentration response curves and IC50 values were calculated using GraphPAD Prism graphing and curve fitting program.

[2] = tested on: Jurkat cells; test: Cell viability assay (WST-1), Jurkat cells; conditions: Homo sapiens, WST-1, 48-72 hrs, 0.5% fetal calf serum
Procedure: as §1

[3] = tested on: Jurkat T-cell leukemic cells; test: Cell cycle assay (Example 163), G2/M block in Jurkat cells; conditions: Homo sapiens, Jurkat, 24 h, flow cytometry (PI), Table 2
Procedure: (§2) MCF-7 breast cancer cells and Jurkat T-cell leukemic cells were grown (and maintained) in EMEM and RPMI media, respectively, containing 10% fetal calf serum.
Test agents were added a concentration of 0.1 μM. Twenty-fours after test agent addition, cells were analyzed for cell cycle status as described below.
(§3) Cell cycle status was analyzed by flow cytometry. Briefly, cells were collected and washed with FACs buffer (Pharmingen) and resuspended and fixed in 1 mL of 80% ethanol for 1 hr. Cells were washed with FACs buffer and resuspended in propidium iodide(PI)/RNase staining buffer (Pharmingen). PI is a fluorescent dye that labels nucleic acids such as DNA. The fluorescence within a cell (in the presence of PI) is proportional to the amount of DNA within a cell. The cell content of DNA is an indices of status in the cell cycle. […] Cells in the S phase have DNA content that lies between these extremes.
(§4) For testing of cell cycle effects of test agents the percentage of cells within the G1 and G2/M phase were measured.

[4] = tested on: MCF-7 breast cancer cells; test: Cell cycle assay (Example 163), G2/M block in MCF-7 cells; conditions: Homo sapiens, MCF7, 24 h, flow cytometry (PI), Table 2
Procedure: as §2
Cells were allowed to adhere for 24 hrs. After adherence, cell culture media was changed to that containing 0.5% FCS. Thirty minutes post-media change, test compounds were added at a concentration of 1 μM. Twenty-fours after test agent addition, cells were analyzed for cell cycle status as described below.
as §3, §4

IC50 [1] [nM] | IC50 [2] [nM] | SMILES | activation at 0.1 µM [3] [%] | activation at 1 µM [4] [%]
1 to 999 | 1 to 999 | Cc1cncc(C(=O)c2cc(O)cc(-c3cccc4[nH]ccc34)c2)c1 [[3-Hydroxy-5-(1H-indol-4-yl)-phenyl]-(5-methyl-pyridin-3-yl)-methanone] | ≥ 50 | ≥ 50
1000 to 30000 | 1000 to 30000 | CS(=O)(=O)Nc1cccc(-c2cc(O)cc(Nc3cccnc3)c2)c1 [N-[5′-Hydroxy-3′-(pyridin-3-ylamino)-biphenyl-3-yl]-methanesulfonamide] | < 50 | ≥ 50
1000 to 30000 | 1 to 999 | Oc1cc(Nc2cccnc2)cc(-c2cnc3ccccc3c2)c1 [3-(Pyridin-3-ylamino)-5-quinolin-3-yl-phenol] | < 50 | < 50
1000 to 30000 | > 3000 | Oc1cc(Nc2cccnc2)cc(-c2ccccc2Cl)c1 [2′-Chloro-5-(pyridin-3-ylamino)-biphenyl-3-ol] | < 50 | < 50
> 3000 | 1000 to 30000 | O=C(c1ccc(CO)nc1)c1cc(O)cc(-c2cccc3[nH]ccc23)c1 [[3-Hydroxy-5-(1H-indol-4-yl)-phenyl]-(6-hydroxymethyl-pyridin-3-yl)-methanone] | < 50 | < 50
1000 to 30000 | > 3000 | Oc1cc(Nc2cccnc2)cc(-c2ccccc2C(F)(F)F)c1 [5-(Pyridin-3-ylamino)-2′-trifluoromethyl-biphenyl-3-ol] | ≥ 50 | < 50
1000 to 30000 | 1 to 999 | O=[N+]([O-])c1cc(Nc2cccnc2)cc(-c2cccc3[nH]ccc23)c1 [[3-(1H-Indol-4-yl)-5-nitro-phenyl]-pyridin-3-yl-amine] | < 50 | < 50
> 3000 | 1000 to 30000 | Oc1cc(Nc2cccnc2)cc(-c2cccc3cc[nH]c23)c1 [3-(1H-Indol-7-yl)-5-(pyridin-3-ylamino)-phenol] | < 50 | < 50
1000 to 30000 | 1000 to 30000 | Oc1cc(Nc2cccnc2)cc(-c2ccc3cc[nH]c3c2)c1 [3-(1H-Indol-6-yl)-5-(pyridin-3-ylamino)-phenol] | < 50 | < 50

Continued, compound first:

SMILES | IC50 [1] [nM] | IC50 [2] [nM] | activation at 0.1 µM [3] [%] | activation at 1 µM [4] [%]
O=C(c1cc(O)cc(-c2cccc3[nH]ccc23)c1)c1cnccn1 [[3-Hydroxy-5-(1H-indol-4-yl)-phenyl]-pyrazin-2-yl-methanone] | 1 to 999 | 1 to 999 | < 50 | < 50
Oc1cc(Nc2cnccn2)cc(-c2cccc3[nH]ccc23)c1 [3-(1H-Indol-4-yl)-5-(pyrazin-2-ylamino)-phenol] | 1 to 999 | 1 to 999 | ≥ 50 | ≥ 50
O=C(c1cc(O)cc(-c2cccc3[nH]ccc23)c1)c1cccnc1Cl [(2-Chloro-pyridin-3-yl)-[3-hydroxy-5-(1H-indol-4-yl)-phenyl]-methanone] | 1000 to 30000 | 1000 to 30000 | < 50 | < 50
Oc1cc(Nc2cccnc2)cc(-c2ccc3[nH]ccc3c2)c1 [3-(1H-Indol-5-yl)-5-(pyridin-3-ylamino)-phenol] | 1000 to 30000 | 1 to 999 | ≥ 50 | < 50
Oc1cc(Nc2cccnc2)cc(-c2cccc3cn[nH]c23)c1 [3-(1H-Indazol-7-yl)-5-(pyridin-3-ylamino)-phenol] | 1000 to 30000 | 1 to 999 | < 50 | < 50
Oc1cc(Nc2ccncc2)cc(-c2cccc3[nH]ccc23)c1 [3-(1H-Indol-4-yl)-5-(pyridin-4-ylamino)-phenol] | 1 to 999 | 1 to 999 | ≥ 50 | ≥ 50
Oc1cc(Nc2cccnc2)cc(-c2cccc3[nH]ccc23)c1Cc1ccccc1 [2-Benzyl-3-(1H-Indol-4-yl)-5-(pyridin-3-ylamino)-phenol] | 1000 to 30000 | 1000 to 30000 | < 50 | < 50
N#Cc1cnc(Nc2cc(O)cc(-c3cccc4[nH]ccc34)c2)cn1 [5-[3-Hydroxy-5-(1H-indol-4-yl)-phenylamino]-pyrazine-2-carbonitrile] | 1000 to 30000 | > 3000 | < 50 | ≥ 50
O=C(c1cccnc1)c1ccc(O)c(C23CC4CC(CC(C4)C2)C3)c1 [(3-Adamantan-1-yl-4-hydroxy-phenyl)-pyridin-3-yl-methanone] | > 3000 | 1000 to 30000 | < 50 | < 50
CN(C)c1cccc(-c2cc(O)cc(Nc3cccnc3)c2)c1 [3′-Dimethylamino-5-(pyridin-3-ylamino)-biphenyl-3-ol] | 1000 to 30000 | 1000 to 30000 | < 50 | < 50
